The values below come from ChEMBL document CHEMBL4513141, “CO-ADD screening of NIH (USA) - Clinical Collection” (2021).

Molecules are shown by their SMILES. In brackets after ≈: the same amount, converted by molar mass. Structures can show the parent of a compound that is named as a salt.

In test [1] the test system is Escherichia coli. Nature of the test: microbe, parasite or virus in culture. The following applies: ATCC 25922, 18 h, ASSAY_TEST Inhibition of Bacterial Growth, detection method Absorption (OD600), MEDIA CAMHB, plate type 384well, NBS, CORNING #3640.
Description: (§1) Antibacterial activity against Escherichia coli ATCC 25922 (CO-ADD:GN_001); MIC in CAMBH media using NBS plates, by OD(600)
Test [2] deals with Pseudomonas aeruginosa. The settings on record: ASSAY_TEST Inhibition of Bacterial Growth; detection method Absorption (OD600); MEDIA CAMHB; plate type 384well; NBS; CORNING #3640; time 18 hr.
Description: (§2) Antibacterial activity against Pseudomonas aeruginosa ATCC 27853 (CO-ADD:GN_042); MIC in CAMBH media using NBS plates, by OD(600)
For test [3], the system named is Staphylococcus aureus. The following applies: ASSAY_TEST Inhibition of Bacterial Growth; detection method Absorption (OD600); MEDIA CAMHB; plate type 384well; NBS; CORNING #3640; time 18 hr.
Description: (§3) Antibacterial activity against Staphylococcus aureus MRSA ATCC 43300 (CO-ADD:GP_020); MIC in CAMBH media, using NBS plates, by OD(600)
Test [4] concerns Acinetobacter baumannii. The following applies: ASSAY_TEST Inhibition of Bacterial Growth; detection method Absorption (OD600); MEDIA CAMHB; plate type 384well; NBS; CORNING #3640; time 18 hr.
Description: (§4) Antibacterial activity against Acinetobacter baumannii ATCC 19606 (CO-ADD:GN_034); MIC in CAMBH media using NBS plates, by OD600
Test [5] has as its system Candida albicans. The test can be described thus: microbe, parasite or virus in culture. The following applies: ATCC 90028, ASSAY_TEST Inhibition of Fungal Growth, detection method Absorption (OD530), plate type 384well, NBS, CORNING #3640.
Description: (§5) Antifungal activity against Candida albicans ATCC 90028 (CO-ADD:FG_001); MIC in YNB media using NBS plates, by OD630
A further test has as its system HEK293. The test can be described thus: cells. The test is classed as functional, Homo sapiens, ATCC CRL1573. The following applies: ASSAY_TEST Inhibition of Cell Viability, detection method Resazurin, Fluorescence (ex560/em590), MEDIA DMEM with 10% FBS, plate type 384well, TC, CORNING #3712, time 18 hr. In general terms: The colour change of resazurin is a common sign of viable cells or microbes.

For test [6], the system named is Klebsiella pneumoniae. Nature of the test: microbe, parasite or virus in culture. The following applies: ATCC 700603, 18 h, ASSAY_TEST Inhibition of Bacterial Growth, detection method Absorption (OD600), MEDIA CAMHB, plate type 384well, NBS, CORNING #3640.
Description: (§6) Antibacterial activity against Klebsiella pneumoniae MDR ATCC 70063 (CO-ADD:GN_003); MIC in CAMBH media using NBS plates, by OD(600)
Test [7] deals with Escherichia coli. The settings on record: ASSAY_TEST Inhibition of Bacterial Growth; detection method Absorption (OD600); MEDIA CAMHB; plate type 384well; NBS; CORNING #3640; time 18 hr.
Description: as §1
In test [8] the test system is Klebsiella pneumoniae. The settings on record: ASSAY_TEST Inhibition of Bacterial Growth; detection method Absorption (OD600); MEDIA CAMHB; plate type 384well; NBS; CORNING #3640; time 18 hr.
Description: as §6
Test [9] has as its system Candida albicans. The settings on record: ASSAY_TEST Inhibition of Fungal Growth; detection method Absorption (OD530); plate type 384well; NBS; CORNING #3640.
Description: as §5
Test [10] deals with Pseudomonas aeruginosa. The test can be described thus: microbe, parasite or virus in culture. The following applies: ATCC 27853, 18 h, ASSAY_TEST Inhibition of Bacterial Growth, detection method Absorption (OD600), MEDIA CAMHB, plate type 384well, NBS, CORNING #3640.
Description: as §2
The subject of test [11] is Acinetobacter baumannii. The test can be described thus: microbe, parasite or virus in culture. The settings on record: ATCC 19606, 18 h, ASSAY_TEST Inhibition of Bacterial Growth, detection method Absorption (OD600), MEDIA CAMHB, plate type 384well, NBS, CORNING #3640.
Description: as §4
In test [12] the test system is Staphylococcus aureus. Nature of the test: microbe, parasite or virus in culture. The following applies: ATCC 43300, 18 h, ASSAY_TEST Inhibition of Bacterial Growth, detection method Absorption (OD600), MEDIA CAMHB, plate type 384well, NBS, CORNING #3640.
Description: as §3
The mark [13] stands for this setting: Homo sapiens, ATCC CRL1573, HEK293.

Description for Cryptococcus neoformans: Antifungal activity against Cryptococcus neoformans H99 ATCC 208821 (CO-ADD:FG_002); MIC in YNB media using NBS plates, by Resazurin OD(600-570)

Broadly, the CC50 is the concentration that lowers cell viability or growth by half. In the case of `C[C@H]1COc2c(N3CCN(C)CC3)c(F)cc3c(=O)c(C(=O)O)cn1c23.C[C@H]1COc2c(N3CCN(C)CC3)c(F)cc3c(=O)c(C(=O)O)cn1c23.O` [LEVOFLOXACIN], the MIC with Escherichia coli [1] was at most 0.0781 µM; against Pseudomonas aeruginosa [2] it was 0.625 µM; against Staphylococcus aureus [3], 0.625 µM; with Cryptococcus neoformans it was above 10 µM; in the test on Acinetobacter baumannii [4], 2.5 µM; against Candida albicans [5], above 10 µM. This compound had an MIC in the test with Klebsiella pneumoniae [6] of 2.5 µM. Besides, in the test with HEK293 (setting [13]), the CC50 was above 10 µM.
As for `COc1cccc2c1C(=O)c1c(O)c3c(c(O)c1C2=O)C[C@@](O)(C(C)=O)C[C@@H]3OC1CC(N)C(O)C(C)O1.Cl` (stereo not given in full), the MIC is above 10 µM against Pseudomonas aeruginosa [2]; 5 µM against Staphylococcus aureus [3]; above 10 µM in the test with Escherichia coli [7]; above 10 µM against Klebsiella pneumoniae [8]; above 10 µM with Cryptococcus neoformans; above 10 µM with Acinetobacter baumannii [4]. In the test with Candida albicans [9], this compound came in with an MIC above 10 µM. The compound also gave a CC50 in the test with HEK293 of 0.148 µM.
For the compound `Oc1cc(Cl)ccc1Oc1ccc(Cl)cc1Cl` [TRICLOSAN], the MIC in the test on Escherichia coli [1] was above 10 µM; in the test with Pseudomonas aeruginosa [10] it was above 10 µM; with Cryptococcus neoformans, above 10 µM; with Candida albicans [5] it was above 10 µM; against Acinetobacter baumannii [11], above 10 µM; with Staphylococcus aureus [12], 2.5 µM (≈ 0.724 µg/mL). The MIC against Klebsiella pneumoniae [6] is above 10 µM. In the test on HEK293 (setting [13]), this compound had a CC50 above 10 µM.
Take `COc1c(N2C[C@@H]3CCCN[C@@H]3C2)c(F)cc2c(=O)c(C(=O)O)cn(C3CC3)c12` [MOXIFLOXACIN HYDROCHLORIDE]: the MIC against Escherichia coli [1] is at most 0.0781 µM; in the test with Pseudomonas aeruginosa [10], 0.625 µM; against Cryptococcus neoformans it was above 10 µM; in the test on Candida albicans [5], above 10 µM; with Acinetobacter baumannii [11] it was 2.5 µM; against Staphylococcus aureus [12] it was 0.156 µM. The same compound came in with an MIC in the test on Klebsiella pneumoniae [6] of 5 µM. Besides, in the test on HEK293 (setting [13]), the CC50 is above 10 µM.
Regarding `Nc1ncn([C@@H]2O[C@H](CO)[C@@H](O)[C@H]2O)c(=O)n1` [AZACITIDINE], the MIC in the test on Escherichia coli [1] was 10 µM (≈ 2.44 µg/mL); against Pseudomonas aeruginosa [10] it was above 10 µM; against Cryptococcus neoformans, above 10 µM; against Candida albicans [5], above 10 µM; against Acinetobacter baumannii [11], above 10 µM; in the test with Staphylococcus aureus [12], above 10 µM. The compound also showed an MIC against Klebsiella pneumoniae [6] above 10 µM. Besides, in the test on HEK293 (setting [13]), the CC50 was above 10 µM.
On to `Cc1cn([C@H]2C[C@H](N=[N+]=[N-])[C@@H](CO)O2)c(=O)[nH]c1=O` [ZIDOVUDINE], for which the MIC with Escherichia coli [1] was 5 µM (≈ 1.34 µg/mL); in the test with Pseudomonas aeruginosa [10], above 10 µM; against Cryptococcus neoformans, above 10 µM; with Candida albicans [5] it was above 10 µM; with Acinetobacter baumannii [11] it was above 10 µM; against Staphylococcus aureus [12], above 10 µM. Moreover, the MIC with Klebsiella pneumoniae [6] amounted to 5 µM (≈ 1.34 µg/mL). The same compound returned a CC50 in the test with HEK293 (setting [13]) above 10 µM.
As for `O=C(O)C[C@H](O)C[C@H](O)/C=C/c1c(C2CC2)nc2ccccc2c1-c1ccc(F)cc1` [PITAVASTATIN CALCIUM], the MIC is above 10 µM against Escherichia coli [1]; above 10 µM against Pseudomonas aeruginosa [10]; 10 µM against Cryptococcus neoformans; 2.5 µM against Candida albicans [5]; above 10 µM in the test with Acinetobacter baumannii [11]; above 10 µM against Staphylococcus aureus [12]. Moreover, the MIC against Klebsiella pneumoniae [6] was above 10 µM. Besides, the CC50 in the test on HEK293 (setting [13]) is above 10 µM.
Turning to `CCOC(=O)CCC(=O)OC1C(OC2C(C)C(OC3CC(C)(OC)C(O)C(C)O3)C(C)C(=O)OC(CC)C(C)(O)C(O)C(C)C(=O)C(C)CC2(C)O)OC(C)CC1N(C)C` (stereo not given), the MIC in the test with Escherichia coli [1], against Pseudomonas aeruginosa [10], in the test on Cryptococcus neoformans, against Candida albicans [5], with Acinetobacter baumannii [11] and against Staphylococcus aureus [12] was above 10 µM each time. In the test with Klebsiella pneumoniae [6], this compound yielded an MIC above 10 µM. This compound also registered a CC50 in the test with HEK293 (setting [13]) above 10 µM.
As for `NC(=O)OCC(COC(N)=O)c1ccccc1`, the MIC in the test with Escherichia coli [1], against Pseudomonas aeruginosa [10], against Cryptococcus neoformans, with Candida albicans [5], against Acinetobacter baumannii [11] and against Staphylococcus aureus [12] was above 10 µM throughout. Also, in the test on Klebsiella pneumoniae [6], the MIC is above 10 µM. For the same compound, in the test with HEK293 (setting [13]), the cytotoxic concentration (CC50) was above 10 µM.
As to `COc1cccc2c1C(=O)c1c(O)c3c(c(O)c1C2=O)C[C@@](O)(C(=O)CO)C[C@@H]3O[C@H]1C[C@H](N)[C@H](O)[C@H](C)O1` [DOXORUBICIN HYDROCHLORIDE], the MIC is above 10 µM against Escherichia coli [1]; above 10 µM against Pseudomonas aeruginosa [10]; above 10 µM in the test on Cryptococcus neoformans; above 10 µM with Candida albicans [5]; above 10 µM in the test with Acinetobacter baumannii [11]; 10 µM in the test on Staphylococcus aureus [12]. The compound further returned an MIC in the test on Klebsiella pneumoniae [6] above 10 µM. The compound also registered a cytotoxic concentration (CC50) with HEK293 (setting [13]) above 10 µM.
